This is an account of results in US20260191968A1, “PROTAC DEGRADERS OF MLLT1 AND/OR MLLT3” (DARK BLUE THERAPEUTICS LTD, priority 2024, published 2026).

One test has as its target T1, MLLT1 (Homo sapiens, UniProt Q03111).
T1 construct: host or cells: MV4-11
T1 sequence (Q03111 1-559): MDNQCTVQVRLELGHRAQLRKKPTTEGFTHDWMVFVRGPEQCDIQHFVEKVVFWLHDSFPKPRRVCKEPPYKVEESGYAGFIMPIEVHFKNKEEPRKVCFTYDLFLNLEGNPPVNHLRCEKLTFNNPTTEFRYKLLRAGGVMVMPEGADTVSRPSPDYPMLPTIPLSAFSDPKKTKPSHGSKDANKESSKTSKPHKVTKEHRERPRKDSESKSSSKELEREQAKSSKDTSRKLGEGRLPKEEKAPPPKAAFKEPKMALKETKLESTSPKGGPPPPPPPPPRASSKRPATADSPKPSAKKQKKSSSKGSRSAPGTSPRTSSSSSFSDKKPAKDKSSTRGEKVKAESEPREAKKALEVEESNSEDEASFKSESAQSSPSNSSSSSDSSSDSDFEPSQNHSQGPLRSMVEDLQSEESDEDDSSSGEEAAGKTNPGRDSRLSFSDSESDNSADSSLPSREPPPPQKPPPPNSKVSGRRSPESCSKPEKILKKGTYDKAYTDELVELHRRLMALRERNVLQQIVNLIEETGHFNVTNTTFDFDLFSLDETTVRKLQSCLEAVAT
As to the kind of experiment: MLLT1 degradation assay in MV4-11 cells (JESS chemiluminescent detection), three concentrations, 24 h. It counts as cell-based. Conditions: with respect to DMSO control. Summed up:
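MV4-11 cells treated 24 h at 37° C, 5% CO2 with 1000, 100 and 10 nM compound (0.1% DMSO final). MLLT1 quantified by automated capillary chemiluminescent immunodetection; band peak area expressed as % degradation relative to DMSO control.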

For another test, the system named is MV4-11 cells. As to the kind of experiment: MV4-11 cellular proliferative assay, Assay Format A (CellTiter-Glo, 120 hours). Type of test: cell-based. Conditions: Homo sapiens. In short, it runs like this: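 Over 120 h, MV4-11 cells seeded at 50 cells/well in IMDM/10% FBS were exposed to compound (10 semi-log dilutions, 30 μM top). Viability was read by CellTiter-Glo luminescence. Signals were normalised to DMSO and reference-compound wells, and AC50 came from a Hill fit.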
A general note: Cellular ATP, detected with luciferase, serves as a proxy for viable cell number.

The test system of a further test is human AML. The experiment in a line: in vivo mouse model of human AML (tumour growth). Conditions: oral administration, procedure of Example 236, FIG. 1.

SMILES strings stand for the structures.

For the molecule `CN1CCC[C@@H]1c1cc2cnc(NC(=O)c3ccc(CCCC#Cc4cccc5c4CN(C4CCC(=O)NC4=O)C5=O)cc3)cc2[nH]1` (stereo partly drawn) [Example 55, 4-(5-(2-(2,6-dioxopiperidin-3-yl)-1-oxoisoindolin-4-yl)pent-4-yn-1-yl)-N-(2-((R)-1-methylpyrrolidin-2-yl)-1H-pyrrolo[3,2-c]pyridin-6-yl)benzamide], at MLLT1 (0.01 μM), the “MLLT1% Degradation @ 0.01 μM” value was “A (Category A: A ≥ 75% degradation)”. Further, the “MLLT1% Degradation @ 0.1 μM” value on MLLT1 (0.1 μM) is given as “A (Category A: A ≥ 75% degradation)”. Besides, the “MLLT1% Degradation @ 1 μM” value at MLLT1 (1 μM) is “A (Category A: A ≥ 75% degradation)”. In the test with MV4-11 cells, the IC50 (as a rule, the concentration at which inhibition is half-maximal) was ≤ 100 nM. Besides, the tumour growth result in the test on human AML is “reduction in tumour growth”.
